Here are results for four compounds from US9458101B2 (priority 2009, dated 2016).

The subject of data set [1] is CEM (Human T-lymphoblastoid from ALL). Description: Cytotoxicity testing (MTS) on CEM. It counts as cell-based. The method, boiled down: (§1)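 Cells plated at optimal densities set by preliminary MTS growth tests (72 and 96 h) and exposed to compound dilutions whose concentrations were checked by absorbance-derived extinction coefficients. Viability read by MTS; data fitted to a two-plateau dose-response model normalized to Itop−Ibot.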

Data set [2] has as its system A549 (Human lung carcinoma). Description: Cytotoxicity testing (MTS) on A549. It counts as cell-based. In short, it runs like this: as §1
Data set [3] deals with M006X (Human glioma). Nature of the data set: Cytotoxicity testing (MTS) on M006X. It counts as cell-based. As to the method:
(§2) Cell lines used were A549 (Human lung carcinoma), HeLa (Human cervical carcinoma), MCF-7 (Human mammary gland adenocarcinoma), CEM (Human T-lymphoblastoid from ALL (Acute lymphoblastic leukemia)), M010B (Human glioma), M006X (Human glioma) and Jurkat (Human T-cell leukemia).
(§3) A series of dilutions were prepared and a wavelength scan of the diluted solution was used to determine the wavelength of maximum absorbance for each compound. Five standardized drug concentrations were scanned at this pre-determined wavelength to obtain an estimate of the compound's extinction coefficient.
(§4) A primary MTS assay was used to test the optimal number of cells for cytotoxicity assays. Cells were trypsinized, counted and introduced into seven lanes of a 96-well plate at different cell numbers (eight replicates per lane). Optimal cell numbers were determined after 72 and 96 hours of growth and were used in subsequent cytotoxicity assays. […] Cell viability was determined using the Cell Titer 96 AQueous One Solution Cell Proliferation Assay (Promega, U.S.A.).
(§5) Fits were performed using a dose-response model ideal for data showing an initial response plateau, a transition region, and a final response plateau.
(§6) [formula] […] Itop is the response obtained at very low/no drug concentration. The data and all parameters were normalized to Itop−Ibot, a measure of the maximum effect of the drug.

The subject of data set [4] is HeLa (Human cervical carcinoma). Nature of the data set: Cytotoxicity testing (MTS) on HeLa. It counts as cell-based. In short, it runs like this: as §1
In data set [5] the test system is M010B (Human glioma). Nature of the data set: Cytotoxicity testing (MTS) on M010B. It counts as cell-based. The protocol: as §2, §3, §4, §5, §6
The test system of data set [6] is CEM cells. Nature of the data set: Viability of 3-D CEM cell cultures in Hollow Fiber Bioreactor (HFB), trypan blue. It counts as cell-based, Human. The note with it: for viability of cell cultures: samples analysed by HPLC; for number of viable cells: HFB, decreased from 10^9 cells/mL, 1000 nM, within 72 h; for viability of cells in HFB: after 3 days of treatment. The protocol:
CEM cells (American Type Culture Collection, Manassas, Va.) were maintained in tissue culture flasks and cultured as monolayer in 20 mL of RPMI media containing 10% Fetal Bovine Serum (FBS). When the number of cells in the culture flask reached 5-6×10^6 cells/mL the culture was harvested and then inoculated into six Hollow Fiber Bioreactors (HFB, FiberCells System, Frederick, Md.) and were continuously cultured in 37° C. and 5% CO2. HFB consists of a single, hydrophylic and polysulfone fiber with 0.1 μm diameter pores. The media circulating within the HFB cartridge and polysulphone tubing, at flow rate of 14 mL/min, brings oxygen and nutrients to cells and removes CO2 and other waste. Collagen solution was used to create an extra cellular matrix between the cells and the fiber. The polysulphone fiber was coated with protein by flushing with 10 mL of coating solution containing 1 mg collagen per 1 mL Phosphate Buffered Saline (PBS). The pH was maintained in the extra-capillary space throughout the duration of experiments between 6.8 and 7.0. Due to the perfusion the HFB absorbed sufficient oxygen from the reservoir with fresh media to keep cells alive. The perfusion medium was changed weekly when the glucose level reached 2 g/L measured with a glucometer.
Viability was assessed using trypan blue (K. Takahashi, G. Loo, Biochem. Pharm. 67 (2004) 315-324). Briefly, CEM cells were harvested from HFB, seeded in 6 well microplates and exposed to 0.4% (w/v) trypan blue dye solution. Cell number was determined manually with a hemacytometer chamber (Hausser Scientific, Horsham, Pa.).
Approximately 4×10^4 CEM cells/ml were treated on culture plates and placed for the 72 h incubation with (2-16) and (28-38) derivatives. All compounds were used for in vitro experiments and then the derivatives were selected for HFB studies to treat 10^9 CEM cells/mL in the 3-D cultures. The cells were treated 4 weeks after the cells' inoculation in the HFB. After 72 h, the growth was inhibited over 50% for 20 nM and higher concentrations in cells treated with (6), (13), (28) and (35).
CEM cells, American Type Culture Collection (Manassas, Va.), were maintained in tissue culture flasks and cultured as monolayer in 20 ml of RPMI media containing 10% Fetal Bovine Serum (FBS) and divided from 5×10^5 cells/mL to 2.5×10^4 cells/mL two times per week. When the number of the cells in the culture flask reached 5-6×10^6 cells/ml the culture was harvested and then inoculated into six Hollow Fiber Bioreactors (HFB, FiberCells System Inc., Frederick, Md.) and then continuously cultured in 37° C. and 5% CO2. The HFB consists of a single, hydrophylic and polysulfone fiber with 0.1 μm diameter pores. The media circulate within the HFB cartridge and polysulphone tubing, at flow rate of 14 mL/min, bringing oxygen and nutrients to cells and removing CO2 and other waste. Collagen solution was used to create an extracellular matrix between cells and fiber. The polysulfone fiber was coated with protein by flushing with 10 mL of coating solution containing 1 mg collagen per 1 mL Phosphate Buffered Saline (PBS). In this manner, CEM cells growing originally in suspension build up a 3-D solid tumor. During 4 weeks of culturing, the media were replaced each week.
The number of cells was determined using Trypan blue (Sigma-Aldrich, Oakville, ON) exclusion method (K. Takahashi, G. Loo, Biochem. Pharmacol. 67 (2004) 315-324). Briefly, CEM cells were harvested from HFB, seeded in 6 well microplates and exposed to 0.4% (w/v) trypan blue dye solution. Cell number was determined manually with a hemacytometer chamber (Hausser Scientific, Horsham, Pa.).

The test system of data set [7] is MCF-7 (Human mammary gland adenocarcinoma). Description: Cytotoxicity testing (MTS) on MCF-7. It counts as cell-based. In short, it runs like this: as §1
Data set [8] deals with A549, HeLa, MCF-7 and CEM cell lines. Nature of the data set: Cytotoxicity, mean over A549, HeLa, MCF-7 and CEM cell lines. The note with it: for IC50 [log10 M] (mean logIC50): mean over A549, HeLa, MCF-7 and CEM cell lines. The method, boiled down: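 MTS viability (CellTiter 96 AQueous One) on A549, HeLa, MCF-7 and CEM cells seeded at pre-optimized densities from 72 and 96 h growth tests. Responses normalized to Itop−Ibot, with Itop the response at very low/no drug; value is the mean across the four lines.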

In data set [9] the test system is CEM cells. Description: HPLC-UV profile of treated CEM cells. It is filed as cell-based, Human. The note with it: for expression of MHC (class I) receptor, HPLC peak intensity: eluted at 53 min; for apoptotic protein signal, HPLC peak intensity: eluted at 57 min. As to the method: Digested cell samples were fractionated with a Gold HPLC chromatograph system equipped with a Gold 166 Ultra Violet (UV) Detector and 32-Karat software (Beckman-Coulter, Mississauga, ON, Canada). For reversed-phase HPLC, a Vydac 218 TP54 Protein & Peptide C18 analytical column, 300 Å pore size, 0.46 cm×25 cm (Separation Group, Hesperia, Calif., U.S.A.) was used. The chromatograph was equipped with a Rheodyne injector (5 μL). UV detection was performed at 245 nm. Eluent A consisted of 5% acetonitrile (ACN) water solution and eluent B of 0.01% trifluoroacetic acid in 95% ACN water solution. A linear gradient from 5 to 70% ACN was applied over 60 min.
It was assumed that signals eluted at 30-35 min were unreacted derivatives with variable intensity of 0.1 V for (28) and (35) as well as 0.35 V for (13) and 0.9 V for (6). […] An additional signal eluted at 57 min occurred in samples treated with (35) and (28) (FIGS. 10D and 10E). The signals at 57 min differ at about 5 min in elution present one from cascade of apoptotic protein in treated cells. The peak intensity of 0.3 V (28) and 0.2 V (35) corresponded to viability of cells 38% (28) and 35% (35) and unreacted derivatives 0.1 (28), 0.1 (35), respectively. The undefined additional peaks with very low intensities, less then 0.05 V, are the metabolites of derivatives or unreacted compounds.

For data set [10], the system named is CEM cells. Nature of the data set: 19F MRI signal intensity of treated 3-D CEM cultures in HFB (cell number with fluorine uptake). It is filed as cell-based, Human. The note with it: for mean CEM cell density in the region with lower densities / mean number of cells in the region with higher cell densities: MRI; for mean cell concentration corresponding to mean 19F SI: cells with fluorine derivative uptake. As to the method:
All MRI experiments were performed using a 9.4 Tesla with 21 cm bore magnet (Magnex, U.K.) and TMX console (NRC-IBD, Canada). ^19F MR images were acquired using double (^19F and ^1H) tuned transmit/receive radio frequency (RF) volume coil operating at 376 MHz and 400 MHz corresponding to ^19F and ^1H Larmour frequency at 9.4 Tesla, respectively. ^1H MR images were collected in the same imaging session that ^19F MRI. Proton MR provided anatomical images of the culture. The MRI images monitored the localization of cells around the fiber in HFB as well as the volume of the cells. Moreover, ^19F MRI selectively visualizes only intracellular fluorine uptake with no background, therefore allows cell count. The cells before and after treatment with (6), (13), (28) and (35) were imaged with ^1H MRI, this allowed changes to be observed in the 3-D cell aggregation. The cells treated with 20 nM (28) and (35) were also imaged with ^19F MRI to measure fluorine content using ^19F NMR signal intensity (SI) in each HFB treated with (28) and (35). […] To obtain the calibration curves (for each derivative separately) the phantoms consisting of HFB tubes filled with 1 nM, 10 nM, 20 nM, 100 nM, 500 nM and 1000 nM of (28) or (35) and 10^3 cells, 10^4 cells, 10^5 cells, 10^6 cells, 10^7 cells, 10^8 cells and 10^9 cells were used. The linear regression was used to find the SI dependence on cell numbers. The cell numbers estimated from ^19F MR imaging were compared to the cell viability obtained from trypan blue assays. […] One 1 mm slice was acquired with a matrix size of 256×256 and a field of view of 3×3 cm for both ^19F and ^1H.

Structures are written as SMILES.

On to `CCOc1c(OC)c(OC)cc2c1-c1ccc(OC)c(=O)cc1[C@@H](NC(C)=O)CC2` [Compound 6, N-[(7S)-1-(ethoxy)-2,3,10-trimethoxy-9-oxo-5,6,7,9-tetrahydrobenzo[α]heptalen-7-yl]acetamide], for which the “Fraction of cells that survive at the highest drug concentrations (Ibot)” value in [1] is given as −0.062 ± 0.026; in data set [2], 0.249 ± 0.030; in data set [3], 0.039 ± 0.011; in data set [4] it was 0.089 ± 0.026; in data set [5] it was 0.108 ± 0.013; in data set [7], 0.605 ± 0.015. Further, the logIC50 in data set [1] is −8.64 ± 0.08 log10 M; in data set [2] it was −7.83 ± 0.10 log10 M; in [3] it was −8.41 ± 0.08 log10 M; in data set [4], −7.89 ± 0.06 log10 M; in data set [5], −7.94 ± 0.04 log10 M; in data set [7], −7.42 ± 0.13 log10 M. The “viability of cell cultures” value in data set [6] is 50%±4. Also, in [8] (average values of Table 3), the “average IC50 values compared with colchicine” value is reported as “stronger than colchicine”. The “IC50 [log10 M] (mean logIC50)” value in data set [8] is on record as −7.95 ± 0.09 log10 M.

In the case of `COc1cc2c(c(-c3cccnc3)c1OC)-c1ccc(OC)c(=O)cc1[C@@H](NC(C)=O)CC2` [Compound 13, N-[(7S)-2,3,10-trimethoxy-9-oxo-1-((pyridin(3))yl)-5,6,7,9-tetrahydrobenzo[α]heptalen-7-yl]acetamide], the “Fraction of cells that survive at the highest drug concentrations (Ibot)” value in data set [1] is on record as −0.026 ± 0.039; in [2], 0.218 ± 2.644; in [3], 0.055 ± 0.046; in data set [4], 0.059 ± 0.059; in [5], 0.305 ± 0.053; in [7], 0.364 ± 0.038. Besides, the logIC50 in data set [1] is −5.50 ± 0.10 log10 M; in data set [2], −4.51 ± 0.32 log10 M; in [3], −5.67 ± 0.12 log10 M; in data set [4] it was −5.33 ± 0.14 log10 M; in [5] it was −4.90 ± 0.09 log10 M; in [7], −5.19 ± 0.09 log10 M. Moreover, in data set [6], the “viability of cell cultures” value is listed as 45%±2. In addition, the “expression of MHC (class I) receptor, HPLC peak intensity” value in data set [9] is on record as 0.05 V. Also, the “IC50 [log10 M] (mean logIC50)” value in data set [8] is recorded as −5.13 ± 0.17 log10 M.

Consider `CCOc1c(OC)c(OC)cc2c1-c1ccc(OC)c(=O)cc1[C@@H](NC(=O)CNC(=O)C(F)(F)F)CC2` [Compound 28], for which, in [6], the “number of viable cells” value is 3.45×10^8 cells/mL, the “viability of cells in HFB” value turned out to be 35% and the “viability of cell cultures” value is given as 38%±4. In data set [10], the “mean CEM cell density in the region with lower densities” value is recorded as 2.4×10^8 cells/mL, the “mean number of cells in the region with higher cell densities” value is on record as 3.5×10^8 cells/mL and the “mean cell concentration corresponding to mean 19F SI” value was 6.03×10^8 cells/mL. Moreover, the “apoptotic protein signal, HPLC peak intensity” value in data set [9] turned out to be 0.3 V.

`COc1cc2c(c(OCc3cccnc3)c1OC)-c1ccc(OC)c(=O)cc1C(NC(=O)CNC(=O)C(F)(F)F)CC2` (stereo not drawn) [Compound 35]: in data set [6], the “number of viable cells” value is 2.9×10^8 cells/mL, the “viability of cells in HFB” value turned out to be 30% and the “viability of cell cultures” value is listed as 35%±5. Besides, in data set [10], the “mean CEM cell density in the region with lower densities” value was 1.4×10^8 cells/mL, the “mean number of cells in the region with higher cell densities” value was 4.8×10^8 cells/mL and the “mean cell concentration corresponding to mean 19F SI” value is recorded as 6.9×10^8 cells/mL. For the same compound, in data set [9], the “expression of MHC (class I) receptor, HPLC peak intensity” value was determined as 0.7 V and the “apoptotic protein signal, HPLC peak intensity” value was found to be 0.2 V.
